US12545653B2, “Compound as PPAR agonist and application thereof” (USA Elixiria Biotech Inc., priority 2019, dated 2026)

Key:
PPARγ = target: T1, PPARγ (Homo sapiens, UniProt P37231); test: In vitro transcriptional activity of PPARγ gene (PPRE-luciferase reporter, HEK 293 T cells); type: cell-based; conditions: HEK 293 T cells transfected with PPARγ expression and PPRE-luc plasmids, 21 hours; read-out: EC50 of PPARγ gene activation
T1 construct: expressed in transfected cells; host or cells: HEK 293 T cells
T1 sequence (P37231 1-505): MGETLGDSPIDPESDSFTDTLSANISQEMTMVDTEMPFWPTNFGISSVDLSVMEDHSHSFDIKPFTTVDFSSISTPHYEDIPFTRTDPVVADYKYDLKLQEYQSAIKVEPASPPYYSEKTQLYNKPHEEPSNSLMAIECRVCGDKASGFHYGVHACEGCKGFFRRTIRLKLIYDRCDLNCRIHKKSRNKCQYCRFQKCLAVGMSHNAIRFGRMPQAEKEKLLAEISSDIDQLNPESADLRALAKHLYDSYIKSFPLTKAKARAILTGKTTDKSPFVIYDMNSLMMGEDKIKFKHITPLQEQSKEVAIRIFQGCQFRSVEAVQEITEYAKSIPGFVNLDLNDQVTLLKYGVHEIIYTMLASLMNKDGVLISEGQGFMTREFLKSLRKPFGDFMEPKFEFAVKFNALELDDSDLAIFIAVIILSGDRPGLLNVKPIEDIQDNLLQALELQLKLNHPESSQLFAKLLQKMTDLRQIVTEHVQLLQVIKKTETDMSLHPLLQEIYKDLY
Source text: In this experiment, the PPARγ gene was used as target gene to detect the in vitro transcription activity of the compounds. The compounds of interest were detected was first dissolved with dimethyl sulfoxide (DMSO). […] First two plasmids were constructed: PPARγ protein expression plasmid and luciferase reporter plasmid. They are both from the lentiviral plasmid pLV-CMVIE-ZsGreen-Puro, whose DNA sequence contains the cytomegalovirus immediate early (CMVie) promoter, ZsGreen and Puro dual reporter. The PPARγ expression plasmid pLV-CMVIE-PPAR[…]-ZsGreen-Puro was constructed by cloning full-length coding sequences of the pertinent receptors into pHBLV-CMVIE-ZsGreen-Puro vector. To construct the luciferase (luc) reporter plasmid pLV-PPRE-luc-ZsGreen-Puro, the CMVie promoter in plasmid pHBLV-CMVIE-ZsGreenPuro was first replaced by a peroxisome proliferator responsive element (PPRE) containing fragments comprised the nucleotide sequence 50-[…], repeated four times in tandem, to generate a new plasmid, at a multiple cloning site of which the luc gene was then inserted. […] The compounds used for screening are representatives for compounds listed in Table 2, and Tables 3 of the present invention. […] Cells were distributed in 10-cm tissue culture plates at a density of 5.5 million cells per plate, and then transfected with the luciferase reporter plasmid (6 nanogram/plate) and the PPARγ expression plasmid (18 nanogram/plate). Cells were cultured for 6 hours. […] Then the cells were distributed in 96-well plates at a density of 20,000 cells per well. After incubation for 6 h, compounds or control with different concentration were placed into each well, resulting in the finical concentration of […] with each concentration in triplicate. Twenty-one hours later, promoter activation was detected by the addition of SteadyLite (PerkinElmer, Waltham, MA) and GloMax 96 Microplate Luminometer (Promega, Madison, WI). The amount of Luminometer emitted from each well is positively correlated with the expression of PPARγ gene. A three-parameter Sigmoid function curve was used to fit the obtained data. The abscissa represents the logarithmic value of the concentration, and the ordinate represents the percentage of PPARγ gene activation relative to those of the control. […] In Statistical analysis, the coefficient of variation is used to measure the robustness and repeatability of the experiment. […] The difference is significant with P<0.05. EC50 is a parameter of its activity.

klotho gene = test: In vivo brain transcriptional activity of klotho gene (RT-PCR of brain mRNA); set-up: species or system mouse; conditions: 10 mg/kg body weight/day tail vein
Procedure: To verify this hypothesis, adult male Kunming mice were used in the experiments. […] The injection volume is 8 ml/kg body weight. Dimethyl sulfoxide (DMSO) was used as a vehicle control of the compounds. […] The RNA was then reverse-transcribed to the cDNA, and quantified by SYBR Green fluorescence quantitative PCR kit (HaiGene) and a quantitative PCR system (Bio-Rad Min-Opticon Type 2) were used for real-time fluorescent quantitative polymerase chain reaction (RT-PCR). The mouse gene primers were design as follows: • KLOTHO-forward 5′-[…]-3′; • LOTHO-reverse 5′-[…]-3′; • GAPDH-forward 5′-[…]-3′; • GAPDH-reverse 5′-[…]-3′.
Data analysis was performed using the 2^−ΔΔct method. Semi-quantitative values of gene expression were then normalized by the control mean.

APP/PS1 transgenic mice = test: Alzheimer's disease model, eight-arm radial water maze and brain gene expression; type: in vivo, mouse; conditions: 30 days in food, 10 mg/kg body weight/day (donepezil 3 mg/kg body weight/day)
Source text: A common indicator used in academia in memory and dementia experiments is the number of errors in the water maze (reference memory). More errors mean poorer memory. On the last 3 days of dosing, eight-arm radial water maze was used by experimenters who were blind to drug treatment. As a classic experimental instrument, to detect slight deficits in learning and memory, the eight-arm water maze is more sensitive than not only Morris maze, but also Six-arm radial water maze. For details, see reference 8: Alamed J et al. Two-day radial-arm water maze learning and memory task; robust resolution of amyloid-related memory deficits in transgenic mice [J]. […] This experiment uses an eight-arm water maze built in accordance with the above literature. The eight-arm water maze is placed in a basin with an interior diameter of 102 cm. Each arm measures 30 cm long, 14.5 cm wide, and 40 cm high. Escape platform is located at the end of one of the arms. In the reference memory version of the task described here, the goal arm is held constant for all trials, with a different start arm on successive trials. On day one, mice received 12 trials, with trials alternating between visible and hidden platform. On day 2 and 3, mice received 12 additional trials but the platform was kept hidden throughout the trials. Entry into an incorrect arm was scored as a spatial reference error. Errors were averaged into three trial blocks, with four blocks per day, e.g., the first block (the 1st to 3rd trial), the second block (the 4th to 6th trial), and so on. […]. The line charts were made with the number of blocks as the abscissa and the average of the number of errors as the ordinate. At the end of the experiments, the cerebral cortex and hippocampus of the mice were removed, RNA was extracted, and the expression of many genes was analyzed by semi-quantitative RT-PCR. […] The difference is significant with P<0.05.

LN-229 cells = test: Brain cancer model, LN-229 cells injected into the striatum, tumor volume; type: in vivo, mouse; conditions: mice with LN-229 cells in striatum, 5 mg/kg body weight/day
Procedure: The treatment lasted for a total of 30 days. The compounds was dissolved in DMSO and mixed into food pellets. The animals were given ad libitum access to the pellets. […] The difference is significant with P<0.05.

[1] = system: rat model of hyperglycemia-induced nephropathy; test: Hyperglycemia-induced nephropathy model (streptozotocin); type: in vivo; conditions: streptozotocin rats, 5 mg/kg body weight/day in food, 90 days
Procedure: The method was as follows:
Wild type Sprague-Dawley rats were used. The compounds was dissolved in DMSO and mixed into food pellets. The animals were given ad libitum access to the pellets. […] In addition, 3 days before compound treatment, the animal of group 2 to 4 were given a single intraperitoneal injection of streptozotocin, and 3 days later, blood glucose levels were measured from tail veins using a glucose meter. Animals with blood glucose levels above 500˜650 milligrams per deciliter were considered as hyperglycemia and were used for further study. No any side effect, or significant body weight changes, or significant dietary changes were found during the administration. After 90 days after initiation of treatment, blood pressure values were measured with the tail cuff system. The day before the kidneys were harvested, animals were placed in metabolic cages for 24 h for urine collection, and albumin to creatinine ratio (ACR) was measured. Animals were then fasted for 12 hours and sacrificed under anesthesia with a 10% chloral hydrate solution (0.3 g/kg). Serum samples were isolated and biochemical parameters were analyzed with by enzyme colorimetry in an automatic analyzer (Roche) to determine the FBG (fasting blood glucose) level (unit millimole/L). In addition, fasting insulin (FINS) levels, where the units are milliIU/L, were determined by enzyme-linked immunosorbent assay (ELISA) method with anti-rat insulin antibodies, and TNF-α was detected by rat tumor necrosis factor-α (TNF-α) ELISA kit (BD). […] The difference is significant with P<0.05.

EC50 (PPARγ): < 6.4 µM
SMILES: CCc1ccc(CC/C=C/c2ccc3c(c2)NC(=O)CC3)cc1 [ELB00727, (E)-7-(4-(4-ethylphenyl)but-1-en-1-yl)-3,4-dihydroquinolin-2(1H)-one]
mRNA level of klotho gene in the brain of the mouse relative to vehicle control group (klotho gene; after 10 days of continuous injection): more than twice
fold induction at 10 mg/kg (klotho gene; Mus musculus, iv, 720 h, after 30 days of continuous injection, read-out: mRNA level of klotho gene in the brain of the mouse relative to vehicle control group): > 5
number of errors in water maze on the third day (APP/PS1 transgenic mice; 5 on the first day): ~1
reduction in the number of errors (reference memory), third day compared with first day (APP/PS1 transgenic mice; eight-arm water maze): significant
tumor volume at 30 days compared with disease control group (LN-229 cells): significant tumor volume reduction
blood TNF-α level compared with disease control group [1]: significant TNF-α level reduction
insulin resistance index ISI=ln (FBG*FINS) compared with disease control group [1]: significant ISI increase
urine albumin to creatinine ratio (ACR) compared with disease control group [1]: significant ACR reduction
